Data reported in ChEMBL document CHEMBL4270491, “Novel 2,4- thiazolidinediones: Synthesis, in vitro cytotoxic activity, and mechanistic investigation” (Eur J Med Chem, 2017).
Active and inactive are the calls of the source. The calls are words filed in the database; no cut-off is given here.

Tests used:
HT-1080 [1] = assay: Cytotoxic activity in human HT1080 cells assessed as reduction in cell viability incubated for 3 days by MTT assay; format: functional, cell-based; details: HT-1080, 72 h
PC-3 [2] = assay: Cytotoxic activity in human PC3 cells assessed as reduction in cell viability incubated for 3 days by MTT assay; format: functional, cell-based; details: PC-3, 72 h
HT-1080 [3] = assay: Induction of apoptosis in human HT1080 cells assessed as induction of DNA fragmentation at 50 uM incubated for 48 hrs by flow cytometry; format: functional, cell-based
HT-1080 [4] = assay: Induction of cell cycle arrest in human HT1080 cells assessed as accumulation at G2/M phase at 50 uM incubated for 48 hrs by propidium iodide staining based flow cytometry; format: functional
HT-1080 [5] = assay: Induction of cell cycle arrest in human HT1080 cells assessed as accumulation at G0/G1 phase at 50 uM incubated for 48 hrs by propidium iodide staining based flow cytometry; format: functional
MDA-MB-231 [6] = assay: Cytotoxic activity in human MDA-MB-231 cells assessed as reduction in cell viability incubated for 3 days by MTT assay; format: functional, cell-based; details: MDA-MB-231, 72 h
HT-1080 [7] = assay: Induction of cell cycle arrest in human HT1080 cells assessed as accumulation at G2/M phase at 20 uM incubated for 48 hrs by propidium iodide staining based flow cytometry; format: functional
HT-1080 [8] = assay: Induction of cell cycle arrest in human HT1080 cells assessed as accumulation at G0/G1 phase at 20 uM incubated for 48 hrs by propidium iodide staining based flow cytometry; format: functional
MDA-MB-231 [9] = assay: Increase in p21(WAF1) protein expression in human MDA-MB-231 cells at 50 uM incubated for 24 hrs by Western blot analysis; format: functional, cell-based
PC-3 [10] = assay: Increase in p21(WAF1) protein expression in human PC3 cells at 50 uM incubated for 24 hrs by Western blot analysis; format: functional, cell-based
HT-1080 [11] = assay: Increase in p21(WAF1) protein expression in human HT1080 cells at 50 uM incubated for 24 hrs by Western blot analysis; format: functional, cell-based
[12] = biological target: T1, Mitogen-activated protein kinase; ERK1/ERK2 (Homo sapiens) (UniProt P27361+P28482); assay: Induction of ERK1/2 Thr202/Tyr204 phosphorylation in human PC3 cells at 50 uM incubated for 24 hrs by Western blot analysis; format: cell-based
[13] = biological target: T1, Mitogen-activated protein kinase; ERK1/ERK2 (Homo sapiens); assay: Inhibition of ERK1/2 Thr202/Tyr204 phosphorylation in human MDA-MB-231 cells at 50 uM incubated for 24 hrs by Western blot analysis; format: cell-based
HT-1080 [14] = assay: Induction of apoptosis in human HT1080 cells assessed as induction of caspase-3 cleavage at 50 uM incubated for 24 hrs by Western blot analysis; format: functional, cell-based

T1 sequence (P27361 whole entry, looked up): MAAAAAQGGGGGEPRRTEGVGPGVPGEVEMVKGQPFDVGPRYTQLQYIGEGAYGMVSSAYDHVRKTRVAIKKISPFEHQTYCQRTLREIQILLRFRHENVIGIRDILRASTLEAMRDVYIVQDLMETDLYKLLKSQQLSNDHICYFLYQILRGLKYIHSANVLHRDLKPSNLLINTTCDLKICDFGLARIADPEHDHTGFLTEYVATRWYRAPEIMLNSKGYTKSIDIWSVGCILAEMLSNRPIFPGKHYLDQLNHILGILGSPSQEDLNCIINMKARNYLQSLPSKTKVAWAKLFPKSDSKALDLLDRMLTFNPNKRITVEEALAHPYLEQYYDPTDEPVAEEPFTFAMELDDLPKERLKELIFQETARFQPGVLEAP
T1 sequence (P28482 whole entry, looked up): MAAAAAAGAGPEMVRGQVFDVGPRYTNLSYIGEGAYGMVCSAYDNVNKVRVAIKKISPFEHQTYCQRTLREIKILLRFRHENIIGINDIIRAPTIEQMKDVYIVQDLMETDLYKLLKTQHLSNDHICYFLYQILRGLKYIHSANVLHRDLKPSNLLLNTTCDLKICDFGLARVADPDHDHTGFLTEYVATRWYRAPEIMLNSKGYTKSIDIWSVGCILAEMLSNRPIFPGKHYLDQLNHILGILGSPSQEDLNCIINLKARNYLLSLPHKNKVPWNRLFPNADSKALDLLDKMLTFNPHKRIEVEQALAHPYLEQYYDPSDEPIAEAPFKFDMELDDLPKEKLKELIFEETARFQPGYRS

Structure (SMILES): O=C1NC(=O)/C(=C\c2ccc(OCc3nc4ccccc4c(=O)n3-c3ccc(Br)cc3)cc2)S1
- IC50 (HT-1080 [1]): 46.1 µM
- IC50 (PC-3 [2]): 60.7 µM
- Activity (HT-1080 [3]): Active
- Activity (HT-1080 [4]): Active
- Activity (HT-1080 [5]): Active
- IC50 (MDA-MB-231 [6]): 45.4 µM

Structure (SMILES): O=C1S/C(=C/c2ccc(Cl)cc2Cl)C(=O)N1Cc1nc2ccccc2c(=O)n1-c1ccccc1
- IC50 (HT-1080 [1]): 12.2 µM
- IC50 (PC-3 [2]): 58.1 µM
- Activity (HT-1080 [3]): inactive
- Activity (HT-1080 [7]): Active
- IC50 (MDA-MB-231 [6]): 6.4 µM
- Activity (HT-1080 [8]): Active

Structure (SMILES): Cc1ccc(/C=C2/SC(=O)N(Cc3nc4ccccc4c(=O)n3-c3ccccc3)C2=O)cc1
- IC50 (HT-1080 [1]): 68.4 µM
- IC50 (PC-3 [2]): 82.4 µM
- IC50 (MDA-MB-231 [6]): 39.7 µM

Structure (SMILES): CCc1ccc(CCOc2ccc(CC3SC(=O)NC3=O)cc2)nc1 (stereo not given) [PIOGLITAZONE]
- IC50 (HT-1080 [1]): > 100 µM
- IC50 (PC-3 [2]): > 100 µM
- Activity (HT-1080 [3]): inactive
- Activity (MDA-MB-231 [9]): Active
- Activity (PC-3 [10]): Active
- Activity (HT-1080 [11]): inactive
- IC50 (MDA-MB-231 [6]): > 100 µM

Structure (SMILES): O=C1NC(=O)/C(=C\c2ccc(OCc3nc4ccccc4c(=O)n3-c3ccc(F)cc3)cc2)S1
- IC50 (HT-1080 [1]): 45.3 µM
- IC50 (PC-3 [2]): 52.1 µM
- Activity (HT-1080 [3]): Active
- Activity (HT-1080 [4]): Active
- Activity (HT-1080 [5]): Active
- IC50 (MDA-MB-231 [6]): 46.2 µM

Structure (SMILES): COc1cc(/C=C2/SC(=O)NC2=O)ccc1OCc1nc2ccccc2c(=O)n1-c1cccc(Cl)c1
- IC50 (HT-1080 [1]): 67.6 µM
- IC50 (PC-3 [2]): 62.1 µM
- IC50 (MDA-MB-231 [6]): 72.5 µM

Structure (SMILES): CN(C)c1ccc(/C=C2/SC(=O)N(Cc3nc4ccccc4c(=O)n3-c3ccccc3)C2=O)cc1
- IC50 (HT-1080 [1]): 9 µM
- Activity [12]: Active
- IC50 (PC-3 [2]): 19.4 µM
- Activity (HT-1080 [3]): Active
- inhibition [13]: Active
- Activity (HT-1080 [7]): Active
- Activity (HT-1080 [14]): Active
- IC50 (MDA-MB-231 [6]): 5.9 µM
- Activity (HT-1080 [8]): Active

Structure (SMILES): COc1cc(/C=C2/SC(=O)NC2=O)ccc1OCc1nc2ccccc2c(=O)n1-c1ccc(C(F)(F)F)cc1
- IC50 (HT-1080 [1]): 38.8 µM
- IC50 (PC-3 [2]): 50.1 µM
- Activity (HT-1080 [3]): Active
- Activity (HT-1080 [4]): Active
- Activity (HT-1080 [14]): Active
- Activity (HT-1080 [5]): Active
- IC50 (MDA-MB-231 [6]): 41 µM

Structure (SMILES): COc1cc(/C=C2/SC(=O)NC2=O)ccc1OCc1nc2ccccc2c(=O)n1-c1ccccc1
- IC50 (HT-1080 [1]): 64.7 µM
- IC50 (PC-3 [2]): 64.2 µM
- Activity (HT-1080 [3]): Active
- Activity (HT-1080 [4]): Active
- Activity (HT-1080 [5]): Active
- IC50 (MDA-MB-231 [6]): 84.2 µM

Structure (SMILES): COc1cccc(-n2c(COc3ccc(/C=C4/SC(=O)NC4=O)cc3OC)nc3ccccc3c2=O)c1
- IC50 (HT-1080 [1]): 47.9 µM
- IC50 (PC-3 [2]): 64.1 µM
- Activity (HT-1080 [3]): Active
- Activity (HT-1080 [4]): Active
- Activity (HT-1080 [5]): Active
- IC50 (MDA-MB-231 [6]): 87.2 µM

Structure (SMILES): O=C1NC(=O)/C(=C\c2ccc(OCc3nc4ccccc4c(=O)n3-c3ccc(Cl)cc3)cc2)S1
- IC50 (HT-1080 [1]): 3.9 µM
- Activity [12]: Active
- IC50 (PC-3 [2]): 8.7 µM
- Activity (HT-1080 [3]): Active
- inhibition [13]: Active
- Activity (MDA-MB-231 [9]): Active
- Activity (HT-1080 [7]): Active
- Activity (HT-1080 [14]): Active
- Activity (PC-3 [10]): Active
- Activity (HT-1080 [11]): inactive
- IC50 (MDA-MB-231 [6]): 4.5 µM
- Activity (HT-1080 [8]): Active

Structure (SMILES): O=C1NC(=O)/C(=C\c2ccc(OCc3nc4ccccc4c(=O)n3-c3ccc(C(F)(F)F)cc3)cc2)S1
- IC50 (HT-1080 [1]): 9 µM
- Activity [12]: Active
- IC50 (PC-3 [2]): 19.1 µM
- Activity (HT-1080 [3]): Active
- inhibition [13]: Active
- Activity (MDA-MB-231 [9]): Active
- Activity (HT-1080 [7]): Active
- Activity (HT-1080 [14]): Active
- Activity (PC-3 [10]): Active
- Activity (HT-1080 [11]): inactive
- IC50 (MDA-MB-231 [6]): 13 µM
- Activity (HT-1080 [8]): Active

Structure (SMILES): COc1ccc(/C=C2/SC(=O)N(Cc3nc4ccccc4c(=O)n3-c3ccccc3)C2=O)cc1
- IC50 (HT-1080 [1]): 47.8 µM
- IC50 (PC-3 [2]): 79.6 µM
- Activity (HT-1080 [3]): Active
- Activity (HT-1080 [4]): Active
- Activity (HT-1080 [5]): Active
- IC50 (MDA-MB-231 [6]): 32.5 µM

Structure (SMILES): COc1cc(/C=C2/SC(=O)NC2=O)ccc1OCc1nc2ccccc2c(=O)n1-c1ccc(Br)cc1
- IC50 (HT-1080 [1]): 18.9 µM
- IC50 (PC-3 [2]): 51.1 µM
- Activity (HT-1080 [3]): Active
- Activity (HT-1080 [4]): Active
- Activity (HT-1080 [14]): Active
- Activity (HT-1080 [5]): Active
- IC50 (MDA-MB-231 [6]): 51.3 µM

Structure (SMILES): COc1cc(-n2c(CN3C(=O)S/C(=C/c4ccc(N(C)C)cc4)C3=O)nc3ccccc3c2=O)cc(OC)c1OC
- IC50 (HT-1080 [1]): 98.1 µM
- IC50 (PC-3 [2]): > 100 µM
- Activity (HT-1080 [3]): inactive
- Activity (HT-1080 [4]): Active
- Activity (HT-1080 [14]): Active
- Activity (HT-1080 [5]): Active
- IC50 (MDA-MB-231 [6]): > 100 µM

Structure (SMILES): COc1cc(/C=C2/SC(=O)NC2=O)ccc1OCc1nc2ccccc2c(=O)n1-c1cccc(Br)c1
- IC50 (HT-1080 [1]): 41.9 µM
- IC50 (PC-3 [2]): 66.8 µM
- Activity (HT-1080 [3]): Active
- Activity (HT-1080 [4]): Active
- Activity (HT-1080 [5]): Active
- IC50 (MDA-MB-231 [6]): 62.1 µM

Structure (SMILES): Cc1ccc(-n2c(COc3ccc(/C=C4/SC(=O)NC4=O)cc3)nc3ccccc3c2=O)cc1
- IC50 (HT-1080 [1]): 45.3 µM
- IC50 (PC-3 [2]): 82.5 µM
- Activity (HT-1080 [3]): Active
- Activity (HT-1080 [4]): Active
- Activity (HT-1080 [5]): Active
- IC50 (MDA-MB-231 [6]): 72.2 µM

Structure (SMILES): O=C1NC(=O)/C(=C\c2ccc(OCc3nc4ccccc4c(=O)n3-c3cccc(Br)c3)cc2)S1
- IC50 (HT-1080 [1]): 28.4 µM
- IC50 (PC-3 [2]): 52.9 µM
- Activity (HT-1080 [3]): Active
- Activity (HT-1080 [4]): Active
- Activity (HT-1080 [5]): Active
- IC50 (MDA-MB-231 [6]): 49.8 µM

Structure (SMILES): O=C1NC(=O)/C(=C\c2ccc(OCc3nc4ccccc4c(=O)n3-c3cccc(Cl)c3)cc2)S1
- IC50 (HT-1080 [1]): 44.8 µM
- IC50 (PC-3 [2]): 70.2 µM
- Activity (HT-1080 [3]): Active
- Activity (HT-1080 [4]): Active
- Activity (HT-1080 [5]): Active
- IC50 (MDA-MB-231 [6]): 58.5 µM

Structure (SMILES): Cc1cccc(-n2c(COc3ccc(/C=C4/SC(=O)NC4=O)cc3)nc3ccccc3c2=O)c1
- IC50 (HT-1080 [1]): 54 µM
- IC50 (PC-3 [2]): > 100 µM
- IC50 (MDA-MB-231 [6]): > 100 µM

Structure (SMILES): COc1ccc(-n2c(CN3C(=O)S/C(=C/c4ccc(N(C)C)cc4)C3=O)nc3ccccc3c2=O)cc1OC
- IC50 (HT-1080 [1]): 86.5 µM
- IC50 (PC-3 [2]): > 100 µM
- Activity (HT-1080 [3]): Active
- Activity (HT-1080 [4]): Active
- Activity (HT-1080 [14]): Active
- Activity (HT-1080 [5]): Active
- IC50 (MDA-MB-231 [6]): > 100 µM

Structure (SMILES): COc1cccc2c1C(=O)c1c(O)c3c(c(O)c1C2=O)C[C@@](O)(C(=O)CO)C[C@@H]3O[C@H]1C[C@H](N)[C@H](O)[C@H](C)O1 [DOXORUBICIN]
- IC50 (HT-1080 [1]): 0.017 µM
- IC50 (PC-3 [2]): 0.3 µM
- IC50 (MDA-MB-231 [6]): 0.36 µM

Structure (SMILES): COc1cccc(-n2c(COc3ccc(/C=C4/SC(=O)NC4=O)cc3)nc3ccccc3c2=O)c1
- IC50 (HT-1080 [1]): 45.6 µM
- IC50 (PC-3 [2]): 66.9 µM
- Activity (HT-1080 [3]): Active
- Activity (HT-1080 [4]): Active
- Activity (HT-1080 [5]): Active
- IC50 (MDA-MB-231 [6]): 59.6 µM

Structure (SMILES): O=C1NC(=O)/C(=C\c2ccc(OCc3nc4ccccc4c(=O)n3-c3ccccc3)cc2)S1
- IC50 (HT-1080 [1]): 34.9 µM
- IC50 (PC-3 [2]): 71 µM
- Activity (HT-1080 [3]): Active
- Activity (HT-1080 [4]): Active
- Activity (HT-1080 [5]): Active
- IC50 (MDA-MB-231 [6]): 50.7 µM

Structure (SMILES): O=C1S/C(=C/c2ccccc2)C(=O)N1Cc1nc2ccccc2c(=O)n1-c1cccc(Br)c1
- IC50 (HT-1080 [1]): 24.6 µM
- IC50 (PC-3 [2]): 37 µM
- IC50 (MDA-MB-231 [6]): 23.4 µM
